Target: human PDE10A2 (Homo sapiens (Human), UniProt Q9Y233)
Experiment: PDE10 fluorescence polarization (IMAP FP) inhibition assay
Type: biochemical
Conditions: FAM-labeled cAMP substrate 50 nM, room temperature, apparent inhibition constant; read-out: PDE10A Ki
Method: The activity of the compounds in accordance with the present invention as PDE10 inhibitors may be readily determined without undue experimentation using a fluorescence polarization (FP) methodology that is well known in the art (Huang, W., et al., J. Biomol Screen, 2002, 7: 215).
In a typical experiment the PDE10 inhibitory activity of the compounds of the present invention was determined in accordance with the following experimental method. PDE10A2 was amplified from human fetal brain cDNA (Clontech, Mountain View, Calif.) using a forward primer corresponding to nucleotides 56-77 of human PDE10A2 (Accession No. AF127480, Genbank Identifier 4894716), containing a Kozak consensus sequence, and a reverse primer corresponding to nucleotides 2406-2413 of human PDE10A2 (Accession No. AF127480, Genbank Identifier 4894716). Amplification with Easy-A polymerase (Stratagene, La Jolla, Calif.) was 95° C. for 2 minutes followed by thirty three cycles of 95° C. for 40 seconds, 55° C. for 30 seconds, and 72° C. for 2 minutes 48 seconds. Final extension was 72° C. for 7 minutes. The PCR product was TA cloned into pcDNA3.2-TOPO (Invitrogen, Carlsbad, Calif.) according to standard protocol. AD293 cells with 70-80% confluency were transiently transfected with human PDE10A2/pcDNA3.2-TOPO using Lipofectamine 2000 according to manufacturer specifications (Invitrogen, Carlsbad, Calif.). Cells were harvested 48 hours post-transfection and lysed by sonication (setting 3, 10×5 sec pulses) in a buffer containing 20 mM HEPES, 1 mM EDTA and protease inhibitor cocktail (Roche). Lysate was collected by centrifugation at 75,000×g for 20 minutes. Supernatant containing the cytoplasmic fraction was used for evaluation of PDE10A2 activity. The fluorescence polarization assay for cyclic nucleotide phosphodiesterases was performed using an IMAP® FP kit supplied by Molecular Devices, Sunnyvale, Calif. (product #R8139). IMAP® technology has been applied previously to phosphodiesterase assays (Huang, W., et al., J. Biomol Screen, 2002, 7: 215). Assays were performed at room temperature in 384-well microtiter plates with an incubation volume of 20.2 μL. Solutions of test compounds were prepared in DMSO and serially diluted with DMSO to yield 8 μL of each of 10 solutions differing by 3-fold in concentration, at 32 serial dilutions per plate. 100% inhibition is determined using a known PDE10 inhibitor, which can be any compound that is present at 5,000 times its Ki value in the assay described as follows, such as papaverine (see Siuciak, et al. Neuropharmacology (2006) 51:386-396; Becker, et al. Behav Brain Res (2008) 186(2):155-60; Threlfell, et al., J Pharmacol Exp Ther (2009) 328(3):785-795), 2-{4-[pyridin-4-yl-1-(2,2,2-trifluoroethyl)-1H-pyrazol-3-yl]phenoxymethyl}quinoline succinic acid or 2-[4-(1-methyl-4-pyridin-4-yl-1H-pyrazol-3-yl)-phenoxymethyl]quinoline succinic acid (see Schmidt, et al. J Pharmacol Exp Ther (2008) 325:681-690; Threlfell, et al., J Pharmacol Exp Ther (2009) 328(3): 785-795). 0% of inhibition is determined by using DMSO (1% final concentrations).
A Labcyte Echo 555 (Labcyte, Sunnyvale, Calif.) is used to dispense 200 nL from each well of the titration plate to the 384 well assay plate. A solution of enzyme (1/1600 dilution from aliquots; sufficient to produce 20% substrate conversion) and a separate solution of FAM-labeled cAMP PDE from Molecular Devices (product #R7506), at a final concentration of 50 nM are made in the assay buffer (10 mM Tris HCl, pH 7.2, 10 mM MgCl2, 0.05% NaN3 0.01% Tween-20, and 1 mM DTT). The enzyme and the substrate are then added to the assay plates in two consecutive additions of 10 μL, and then shaken to mix. The reaction is allowed to proceed at room temperature for 30 minutes. A binding solution is then made from the kit components, comprised of 80% Solution A, 20% Solution B and binding reagent at a volume of 1/600 the total binding solution. […]

Chain of human PDE10A2 (Q9Y233 267-1055): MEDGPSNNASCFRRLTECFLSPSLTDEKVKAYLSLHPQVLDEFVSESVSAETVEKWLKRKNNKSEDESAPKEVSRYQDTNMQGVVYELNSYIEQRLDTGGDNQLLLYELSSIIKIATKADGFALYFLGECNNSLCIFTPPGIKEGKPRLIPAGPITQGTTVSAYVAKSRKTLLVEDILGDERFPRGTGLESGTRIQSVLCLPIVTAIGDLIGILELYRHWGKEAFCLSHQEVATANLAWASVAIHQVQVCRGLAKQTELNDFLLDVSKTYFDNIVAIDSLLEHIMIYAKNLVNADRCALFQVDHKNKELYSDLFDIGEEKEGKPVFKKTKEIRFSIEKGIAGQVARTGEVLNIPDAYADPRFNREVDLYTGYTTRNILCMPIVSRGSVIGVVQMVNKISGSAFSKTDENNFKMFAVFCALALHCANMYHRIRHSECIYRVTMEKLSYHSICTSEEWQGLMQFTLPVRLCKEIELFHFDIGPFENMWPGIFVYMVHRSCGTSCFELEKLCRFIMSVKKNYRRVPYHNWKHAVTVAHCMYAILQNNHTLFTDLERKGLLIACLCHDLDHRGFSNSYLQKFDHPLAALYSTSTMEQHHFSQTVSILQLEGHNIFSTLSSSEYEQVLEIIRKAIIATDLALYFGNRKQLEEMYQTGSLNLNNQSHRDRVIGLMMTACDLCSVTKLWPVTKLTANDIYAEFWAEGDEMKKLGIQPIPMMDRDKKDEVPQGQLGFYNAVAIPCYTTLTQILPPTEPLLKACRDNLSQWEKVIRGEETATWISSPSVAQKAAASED

| Structure (SMILES) | Ki |
| --- | --- |
| CCc1cccc(NC(=O)N2CCc3nc(-c4cccnc4)nc(OC4CCN(C)CC4)c3C2)c1 [Compound 1-7, N-(3-ethylphenyl)-4-[(1-methylpiperidin-4-yl)oxy]-2-pyridin-3-yl-7,8-dihydropyrido[4,3-d]pyrimidine-6(5H)-carboxamide] | 14 nM |
| COc1cc(NC(=O)N2CCc3nc(-c4ccc(Cl)nc4)nc(O[C@@H]4CCOC4)c3C2)ccn1 [Compound 1-13, 2-(6-chloropyridin-3-yl)-N-(2-methoxypyridin-4-yl)-4-[(3R)-tetrahydrofuran-3-yloxy]-7,8-dihydropyrido[4,3-d]pyrimidine-6(5H)-carboxamide] | 0.84 nM |
| CC(C)Oc1nc(-c2cccnc2)nc2c1CN(c1nc3ccccc3o1)CC2 [Compound 1-18, 6-(1,3-benzoxazol-2-yl)-4-(propan-2-yloxy)-2-(pyridin-3-yl)-5,6,7,8-tetrahydropyrido[4,3-d]pyrimidine] | 15.9 nM |
| COc1ccc2[nH]c(C(=O)N3CCc4nc(-c5cccnc5)nc(OC(C)C)c4C3)cc2n1 [Compound 1-20, (5-methoxy-1H-pyrrolo[3,2-b]pyridin-2-yl)[4-(propan-2-yloxy)-2-(pyridin-3-yl)-7,8-dihydropyrido[4,3-d]pyrimidin-6(5H)-yl]methanone] | 0.8 nM |
| Cc1ccc(NC(=O)N2CCc3nc(N4CCCC4)nc(OC(C)C)c3C2)cn1 [Compound N-5, 4-isopropoxy-N-(6-methylpyridin-3-yl)-2-pyrrolidin-1-yl-7,8-dihydropyrido[4,3-d]pyrimidine-6(5H)-carboxamide] | 31.4 nM |
| COCCOc1nc(-c2ccc(Cl)nc2)nc2c1CN(C(=O)c1cnn3ccccc13)CC2 [Compound O-2, [2-(6-chloropyridin-3-yl)-4-(2-methoxyethoxy)-7,8-dihydropyrido[4,3-d]pyrimidin-6(5H)-yl](pyrazolo[1,5-a]pyridin-3-yl)methanone] | 0.93 nM |
| COCCOc1nc(-c2ccc(Cl)nc2)nc2c1CN(C(=O)c1ncn3ccccc13)CC2 [Compound Q-2, [2-(6-chloropyridin-3-yl)-4-(2-methoxyethoxy)-7,8-dihydropyrido[4,3-d]pyrimidin-6(5H)-yl](imidazo[1,5-a]pyridin-1-yl)methanone] | 0.99 nM |
| COCCOc1nc(-c2ccc(C)nc2)nc2c1CN(C(=O)c1cnn3ccccc13)CC2 [Compound R-1, 4-(2-methoxyethoxy)-2-(6-methylpyridin-3-yl)-6-(pyrazolo[1,5-a]pyridin-3-ylcarbonyl)-5,6,7,8-tetrahydropyrido[4,3-d]pyrimidine] | 12.5 nM |
| COCCOc1nc(-c2ccc(Cl)nc2)nc2c1CN(C(=O)Oc1ccccc1)CC2 [Compound S-1, phenyl 2-(6-chloropyridin-3-yl)-4-(2-methoxyethoxy)-7,8-dihydropyrido[4,3-d]pyrimidine-6(5H)-carboxylate] | 16.8 nM |
| COC[C@H](C)Oc1nc(-c2ccc(Cl)nc2)nc2c1CN(C(=O)c1ncn3ccccc13)CC2 [Compound T-1, [2-(6-chloropyridin-3-yl)-4-{[(2S)-1-methoxypropan-2-yl]oxy}-7,8-dihydropyrido[4,3-d]pyrimidin-6(5H)-yl](imidazo[1,5-a]pyridin-1-yl)methanone] | 0.43 nM |

Other lines, results leading:

| Ki | Structure (SMILES) |
| --- | --- |
| 9.2 nM | CC(C)Oc1nc(-c2cccnc2)nc2c1CN(C(=O)Nc1ccc3ccn(C)c3c1)CC2 [Compound 1-8, 4-isopropoxy-N-(1-methyl-1H-indol-6-yl)-2-pyridin-3-yl-7,8-dihydropyrido[4,3-d]pyrimidine-6(5H)-carboxamide] |
| 0.6 nM | Cc1ccc(NC(=O)N2CCc3nc(-c4ccc(Cl)nc4)nc(OC(C)C)c3C2)cn1 [Compound 1-11, 2-(6-chloropyridin-3-yl)-N-(6-methylpyridin-3-yl)-4-(propan-2-yloxy)-7,8-dihydropyrido[4,3-d]pyrimidine-6(5H)-carboxamide] |
| 9.9 nM | Cc1ccc(C(=O)N2CCc3nc(-c4ccc(Cl)nc4)nc(OC(C)C)c3C2)cn1 [Compound 1-14, [2-(6-chloropyridin-3-yl)-4-(propan-2-yloxy)-7,8-dihydropyrido[4,3-d]pyrimidin-6(5H)-yl](6-methylpyridin-3-yl)methanone] |
| 0.63 nM | CC(C)Oc1nc(-c2ccc(Cl)nc2)nc2c1CN(S(=O)(=O)c1cccnc1)CC2 [Compound 1-17, 2-(6-chloropyridin-3-yl)-4-(propan-2-yloxy)-6-(pyridin-3-ylsulfonyl)-5,6,7,8-tetrahydropyrido[4,3-d]pyrimidine] |
| 4.55 nM | CC(C)Oc1nc(-c2ccc(Cl)nc2)nc2c1CN(C(=O)c1cn(C)cn1)CC2 [Compound 1-19, [2-(6-chloropyridin-3-yl)-4-(propan-2-yloxy)-7,8-dihydropyrido[4,3-]pyrimidin-6(5H)-yl](1-methyl-1H-imidazol-4-yl)methanone] |
| 0.9 nM | CC(C)Oc1nc(-c2ccc(Cl)nc2)nc2c1CN(C(=O)Nc1cnn(C)c1)CC2 [Compound K-2, 2-(6-chloropyridin-3-yl)-N-(1-methyl-1H-pyrazol-4-yl)-4-(propan-2-yloxy)-7,8-dihydropyrido-[4,3-d]pyrimidine-6(5H)-carboxamide] |
| 0.92 nM | COC[C@H](C)Oc1nc(-c2ccc(Cl)nc2)nc2c1CN(C(=O)Nc1ccc(C)nc1)CC2 [Compound P-5, 2-(6-chloropyridin-3-yl)-4-{[(2S)-1-methoxypropan-2-yl]oxy}-N-(6-methylpyridin-3-yl)-7,8-dihydropyrido[4,3-d]pyrimidine-6(5H)-carboxamide] |

Reference: patent US8492392B2, “Alkoxy tetrahydro-pyridopyrimidine PDE10 inhibitors” (Merck Sharp & Dohme Corp., priority 2009, dated 2013)
